Data published in ChEMBL document CHEMBL1122784, “Antitumor imidazotetrazines. 1. Synthesis and chemistry of 8-carbamoyl-3-(2-chloroethyl)imidazo[5,1-d]-1,2,3,5-tetrazin-4(3 H)-one , a novel broad-spectrum antitumor agent” (J Med Chem, 1984).

Experiments:
Assay type in all cases: ADME
[1] = Half-life period in 95% ethanol in dark at 28 degrees celsius.
[2] = Half-life period in 95% ethanol in diffuse laboratory light at 28 degrees celsius.
[3] = Half-life period in phosphate buffer at pH 7.4 in the dark at 28 degrees celsius.
[4] = Half-life period in 95% ethanol in diffuse laboratory light at 28 degrees celsius

| Structure (SMILES) | half-life [1] [min] | half-life [2] [min] | half-life [3] [min] | half-life [4] [min] |
| --- | --- | --- | --- | --- |
| NC(=O)c1ncn2c(=O)n(-c3ccccc3)nnc12 | 23 | 9 | – | – |
| NC(=O)c1ncn2c(=O)n(-c3cccc4ccccc34)nnc12 | 4.6 | – | – | – |
| N#Cc1cccc(-n2nnc3c(C(N)=O)ncn3c2=O)c1 | 2.6 | – | – | – |
| CCOc1ccc(-n2nnc3c(C(N)=O)ncn3c2=O)cc1 | 78 | 8 | – | – |
| Cc1ccc(-n2nnc3c(C(N)=O)ncn3c2=O)cc1 | 40 | 7.5 | – | – |
| COc1ccc(-n2nnc3c(C(N)=O)ncn3c2=O)cc1 | 69 | 8.5 | 155 | – |
| NC(=O)c1ncn2c(=O)n(-c3ccc(Cl)cc3)nnc12 | 6.3 | 8.2 | 2.9 | – |
| NC(=O)c1ncn2c(=O)n(-c3ccc([N+](=O)[O-])cc3)nnc12 | < 1 | – | – | – |
| CCCn1nnc2c(C(N)=O)ncn2c1=O | 155 | 155 | – | – |
| Cn1nnc2c(C(N)=O)ncn2c1=O [TEMOZOLOMIDE] | 495 | – | – | 495 |
